Values quoted from earlier work in US20050004194A1, “Use of organic compounds” (priority 2003, published 2005).

Legend:
[1] = SAVE trial, patients after MI, captopril versus placebo
[2] = elderly heart failure patients, losartan versus captopril 50 mg t.i.d.

For `C[C@H](CS)C(=O)N1CCC[C@H]1C(=O)O` [captopril], the left ventricular remodeling [1] is listed as “improvement”.

In the case of `CCCCc1nc(Cl)c(CO)n1Cc1ccc(-c2ccccc2-c2nn[nH]n2)cc1` [losartan], the “primary objective: tolerability and increase in serum creatinine” value [2] is listed as “no significant differences” and the all-cause mortality ([2]; 722 patients, based on only 49 deaths) is listed as “statistically significant reduction”.
